Data: patent US8946201B2, “Methods for inhibiting TGF-β” (Saint Louis University, priority 2007, dated 2015)
“Also recorded” adds a separate entry of the source.

What was measured:
[1] = system: Mv1Lu cells; assay: [Methyl-3H]thymidine incorporation (DNA synthesis), Mv1Lu cells; format: cell-based, mink
Experimental: (A, B, C, D, E, F) Cells were treated with 50 μg/ml cholesterol (A, B, C, D) and 50 μg/ml LDL (D) at 37° C. for 1 hr or with 1 μM fluvastatin or lovastatin (E) or several concentrations of fluvastatin (F) at 37° C. for 16 hr and then further incubated with increasing concentrations (as indicated) of TGF-β1 (A, B, C, E) or 50 pM TGF-β1 (D,F) for 2 hr. Northern blot analysis of PAI-1 and G3PDH was performed. A representative of a total of three analyses is shown (a). The relative intensities of the transcripts were quantified with a PhosphoImager. The ratio of the relative intensities of PAI-1 and G3PDH transcripts in cells treated without TGF-β1 and cholesterol, LDL or statins on the blot was taken as 1 fold or 100% of PAI-1 expression. The quantitative data from three independent analyses is shown (b). […] (G) Mv1Lu cells stably expressing a luciferase reporter gene driven by the PAI-1 promoter (MLECs-clone 32) were treated with increasing concentrations (as indicated) of cholesterol at 37 EC for 1 hr (a) or with 1 μM lovastatin at 37° C. for 16 hr (b) and then further incubated with 50 pM TGF-β for 7 hr. The luciferase activity in cells treated without cholesterol was taken as 100% (a). […] (H) Cells were incubated with 0.0625 and 0.125 pM TGF-β1 in the presence of increasing concentrations of cholesterol, as indicated. After 18 hr at 37° C., cell growth was determined by measurement of [^3H-methyl]thymidine incorporation into cellular DNA (a). The [^3H-methyl]thymidine incorporation in cells treated with vehicle only (T1); with TGF-β1 (T2); with cholesterol (T3); with cholesterol and TGF-β1 (T4) was measured. T1 was taken as 100%. The degree (%) of cholesterol-mediated reversal of TGF-β1 growth inhibition was estimated by the equation: % reversal=[1−(T3−T4/T1−T2)]×100 Cholesterol appeared to reverse TGF-β1 growth inhibition in a dose-dependent manner (b). The experiments were carried out in triplicate.
The growth of cholesterol-treated cells was determined by measurement of [methyl-^3H]thymidine incorporation into cellular DNA as described (30). Briefly, cells grown near confluence on 48-well clustered dishes were treated with several concentrations of cholesterol at 37° C. for 1 hr in serum-free DMEM. The final concentration of ethanol (the vehicle for cholesterol) in the medium was 0.2%. […] The [methyl-^3H]thymidine incorporation into cellular DNA was then determined by incubation of cells with [methyl-^3H]thymidine at 37° C. for 2 hr in DMEM containing 0.1% fetal calf serum. […]
Another prominent biological activity of TGF-β is growth inhibition of many different cell types. […] DNA synthesis was then determined by measurement of [^3H-methyl]thymidine incorporation into cellular DNA (FIG. 2Ha). […]

[2] = system: pig burn wounds; assay: Pig skin burn injury model: wound healing and scar; format: in vivo; conditions: topical; for wound closure / open wound: post-burn day 38
Experimental: FIG. 6. Wound closure and scar formation in pig burn wounds treated with cholesterol (CHO). Burn wounds treated with 0.025% cholesterol (A,B) and 0.00625% cholesterol (E,F) and vehicle only (C,D) were photographed immediately after burn injury (A,C,E) and at postburn day 38 (B,D,F). After burn injury, necrosis was present (white) (A,C,E).
Four pigs weighing 20-25 kg were anesthetized by intramuscular injection of ketamine (5 mg/kg), strenil (cazaporonum) (20 mg/kg) and atropine ([…]). Six uniform burn wounds (110° C., 30 sec) were then made symmetrically on the back of each pig using a modified soldering iron with a flat contact area of ˜20 cm^2. […] After wounding, IntraSite gels containing TGF-β antagonist and buffer vehicle (as control) were applied to the pig burn wounds. The burn wound received no topical gel treatment was also used as the other control. All wounds were dressed with paraffin gauze. TGF-β antagonist gel and control gel were applied to the wounds every two days for the first 10 days and twice a week for the next 30 days. All wounds were cleaned and measured prior to each application of the IntraSite gel.
Wound healing was assessed by evaluating the rates of wound re-epithelialization and contraction. The open wound area and the area enclosed by the normal hair bearing skin were measured using the macrophotography technique. The healing rate was monitored every two days for the first 10 days and twice a week for 30 more days. Wound re-epithelialization or contraction as a percent of the original wound size was calculated as described previously.
The volumes of scar were estimated by multiplying their thickness by the size of the scar on post-burn day 41 in pigs and on post-excision day 10 in rabbits.
These include: 1) Cholesterol treatment of cells suppresses TGF-β-induced cellular responsiveness including TGF-β induced Smad2 phosphorylation and nuclear translocation and TGF-β-induced expression of plasminogen activator inhibitor-1 (PAI-1). PAI-1 gene expression has commonly been used as an indicator of TGF-β-induced cellular responsiveness and PAI-1 is involved in inhibiting degradation of ECM proteins. And 2) Cholesterol treatment reverses TGF-β-induced growth inhibition in Mv1Lu cells. Since TGF-β negatively regulates normal wound healing and mediates skin fibrosis and scarring, we decided to test the effect of cholesterol on wound healing and scar formation in a pig skin burn injury model. Six thermal burns (110° C., 30 sec.; ˜20 cm^2, three on each side) were created on the back on each pig (20 kg, female). After wounding, two lesions were treated with a thin-layer of gel containing 0.025% cholesterol; two received gel containing 0.006% cholesterol and two received gel containing vehicle only. Cholesterol and cholesterol gels were applied every 2 days for the first 10 days and twice a week for the nest 30 days at which time re-epithelialization was measured and photographed. […] The volumes of the scar tissue in wound treated with 0.025% and 0.00625% cholesterol were 0.01 and 0.20±0.04 cm^3, respectively. The volume of the scar tissue in wounds treated with vehicle only was 0.45±0.03 cm^3.

In the case of `CC(C)CCC[C@@H](C)[C@H]1CC[C@H]2[C@@H]3CC=C4C[C@@H](O)CC[C@]4(C)[C@H]3CC[C@]12C` [cholesterol], the “reversal of DNA synthesis inhibition induced by TGF-β1” value ([1]; 8 μg/ml, 0.0625 and 0.125 pM TGF-β1, 18 hr) is reported as “almost completely reversed”, the “effect on DNA synthesis, alone” value ([1]; 6 and 8 μg/ml, without TGF-β1) is reported as “inhibited” and the “volume of the scar tissue” value ([2]; 0.00625% cholesterol gel) is reported as 0.20±0.04 cm^3. The “wound closure / open wound” value ([2]; 0.00625% cholesterol gel) was “no and almost complete”, the surface of wounds ([2]; 0.025% cholesterol gel) was “very smooth without apparent scar” and the “volume of the scar tissue” value ([2]; 0.025% cholesterol gel) was 0.01 cm^3. The “wound closure / open wound” value ([2]; 0.025% cholesterol gel) was “very little open wound; also recorded: complete”.
